Measurements: PMC8319832, “Fine-Tuning of Alkaline Residues on the Hydrophilic Face Provides a Non-toxic Cationic α-Helical Antimicrobial Peptide Against Antibiotic-Resistant ESKAPE Pathogens” (Frontiers in Microbiology, 2021)
≈ marks a conversion by molar mass, not a printed value. Where a SMILES comes first, the peptide text is derived from it.

Experiments:
S. aureus 4188 = assay: MIC, broth dilution; type: cell-based, Staphylococcus aureus; conditions: CLSI broth dilution, MHB, 37°C, 20 h, OD630, at least three repeats; clinical isolate, penicillin-resistant
Excerpt: (§1) All experiments were repeated at least three times.

S. aureus ATCC 25923 = assay: MIC, broth dilution; type: cell-based, Staphylococcus aureus; conditions: CLSI broth dilution, MHB, 37°C, 20 h, OD630, at least three repeats; standard strain
Excerpt: as §1

S. aureus 1176 = assay: MIC, broth dilution; type: cell-based, Staphylococcus aureus; conditions: CLSI broth dilution, MHB, 37°C, 20 h, OD630, at least three repeats; clinical isolate
Excerpt: as §1

S. aureus 9124 = assay: MIC, broth dilution; type: cell-based, Staphylococcus aureus; conditions: CLSI broth dilution, MHB, 37°C, 20 h, OD630, at least three repeats; clinical isolate, MRSA
Excerpt: as §1

[1] = system: human red blood cells (hRBCs); assay: Hemolytic activity determination; type: cell-based; conditions: hRBCs in 0.9% sodium chloride, 37°C, 1 h, OD540, 1% Triton X-100 = 100%, three independent experiments
Method: Fresh human red blood cells (hRBCs) were collected in a sterile borosilicate glass tube covered with sodium citrate as the anticoagulating agent. […] Two-fold dilutions of the peptides were prepared in 0.9% sodium chloride to 100 μl and mixed with equal volumn of hRBC suspension to final peptide concentrations ranging from 12.5 to 200 μg ml^–1. After co-incubation at 37°C for 1 h, the samples were centrifuged (2,000 × g, 4°C, 20 min), and the supernatant (100 μl) was taken for optical density (OD540) measurements (Asample). The hRBCs assayed with 0.9% sodium chloride (Ablank) or 1% Triton X-100 (Apositive) were applied as 0% and 100% hemolysis, respectively. Three independent experiments were performed and the percent hemolysis was calculated according to the following equation ([Yin et al., 2012]; [Li et al., 2016]):
Hemolysis(%)=100*(Asample-Ablank)/(Apositive-Ablank)

A. baumannii 13012 = assay: MIC, broth dilution; type: cell-based, Acinetobacter baumannii; conditions: CLSI broth dilution, MHB, 37°C, 20 h, OD630, at least three repeats; clinical isolate, CRE, MDR
Excerpt: as §1

A. baumannii 13079 = assay: MIC, broth dilution; type: cell-based, Acinetobacter baumannii; conditions: CLSI broth dilution, MHB, 37°C, 20 h, OD630, at least three repeats; clinical isolate, CRE, MDR
Excerpt: as §1

A. baumannii 906 = assay: MIC, broth dilution; type: cell-based, Acinetobacter baumannii; conditions: CLSI broth dilution, MHB, 37°C, 20 h, OD630, at least three repeats; clinical isolate, CRE, MDR
Excerpt: as §1

A. baumannii 9068 = assay: MIC, broth dilution; type: cell-based, Acinetobacter baumannii; conditions: CLSI broth dilution, MHB, 37°C, 20 h, OD630, at least three repeats; clinical isolate, CRE, MDR
Excerpt: as §1

[2] = system: K. pneumoniae ATCC 700603; assay: MIC, broth dilution; type: cell-based, Klebsiella pneumoniae; conditions: CLSI broth dilution, MHB, 37°C, 20 h, OD630, at least three repeats; standard strain
Method: as §1
(§2) To study the influence of physiological ions on the antimicrobial activities of the peptides, The MICs of the peptides were also determined against the standard bacterial strains cultured in MHB containing various salts at their physiological concentrations (150 mM NaCl, 4.5 mM KCl, 1 mM MgCl2, 2 mM CaCl2, 6 μM NH4HCO3, and 4 μM FeCl3) ([Ma et al., 2016]).

E. faecium 898 = assay: MIC, broth dilution; type: cell-based, Enterococcus faecium; conditions: CLSI broth dilution, MHB, 37°C, 20 h, OD630, at least three repeats; clinical isolate
Excerpt: as §1

E. coli 2687 = assay: MIC, broth dilution; type: cell-based, Escherichia coli; conditions: CLSI broth dilution, MHB, 37°C, 20 h, OD630, at least three repeats; clinical isolate, ESBL
Excerpt: as §1

E. coli ATCC35218 = assay: MIC, broth dilution; type: cell-based, Escherichia coli; conditions: CLSI broth dilution, MHB, 37°C, 20 h, OD630, at least three repeats; standard strain
Excerpt: as §1

E. coli 2678 = assay: MIC, broth dilution; type: cell-based, Escherichia coli; conditions: CLSI broth dilution, MHB, 37°C, 20 h, OD630, at least three repeats; clinical isolate, ESBL
Excerpt: as §1

S. epidermidis 6943 = assay: MIC, broth dilution; type: cell-based; conditions: CLSI broth dilution, MHB, 37°C, 20 h, OD630, at least three repeats; clinical isolate, MRSE
Excerpt: as §1

S. epidermidis 888 = assay: MIC, broth dilution; type: cell-based; conditions: CLSI broth dilution, MHB, 37°C, 20 h, OD630, at least three repeats; clinical isolate
Excerpt: as §1

E. faecalis 901 = assay: MIC, broth dilution; type: cell-based; conditions: CLSI broth dilution, MHB, 37°C, 20 h, OD630, at least three repeats; clinical isolate
Excerpt: as §1

S. epidermidis 9092 = assay: MIC, broth dilution; type: cell-based; conditions: CLSI broth dilution, MHB, 37°C, 20 h, OD630, at least three repeats; clinical isolate, MRSE
Excerpt: as §1

K. pneumoniae 9126 = assay: MIC, broth dilution; type: cell-based, Klebsiella pneumoniae; conditions: CLSI broth dilution, MHB, 37°C, 20 h, OD630, at least three repeats; clinical isolate, CRE
Excerpt: as §1

P. aeruginosa ATCC 27853 = assay: MIC, broth dilution; type: cell-based, Pseudomonas aeruginosa; conditions: CLSI broth dilution, MHB, 37°C, 20 h, OD630, at least three repeats; standard strain
Method: as §1, §2

S. aureus ATCC29213 = assay: MIC, broth dilution; type: cell-based, Staphylococcus aureus; conditions: CLSI broth dilution, MHB, 6.25 × 10^5 cfu per ml, 37°C, 20 h, OD630, at least three repeats
Method: as §1, §2

P. aeruginosa 9042 = assay: MIC, broth dilution; type: cell-based, Pseudomonas aeruginosa; conditions: CLSI broth dilution, MHB, 37°C, 20 h, OD630, at least three repeats; clinical isolate
Excerpt: as §1

P. aeruginosa 9014 = assay: MIC, broth dilution; type: cell-based, Pseudomonas aeruginosa; conditions: CLSI broth dilution, MHB, 37°C, 20 h, OD630, at least three repeats; clinical isolate, CRE, MDR
Excerpt: as §1

E. faecalis ATCC 29212 = assay: MIC, broth dilution; type: cell-based; conditions: CLSI broth dilution, MHB, 37°C, 20 h, OD630, at least three repeats; standard strain
Method: as §1, §2

E. coli ATCC25922 = assay: MIC, broth dilution; type: cell-based, Escherichia coli; conditions: CLSI broth dilution, MHB, 6.25 × 10^5 cfu per ml, 37°C, 20 h, OD630, at least three repeats
A. baumannii ATCC 19606 = assay: MIC, broth dilution; type: cell-based, Acinetobacter baumannii; conditions: CLSI broth dilution, MHB, 37°C, 20 h, OD630, at least three repeats; standard strain
Method: as §1, §2

[3] = system: ESBL-producing E. coli, CRE- and MDR P. aeruginosa, CRE- and MDR A. baumannii; assay: MIC, summary over resistant gram-negative strains; type: cell-based; conditions: summary of Table 4
Excerpt: as §1

A. baumannii = conditions: summary of Table 4
Method: The MIC determination was performed using the broth dilution method according to the guidelines of the Clinical and Laboratory Standards Institute (CLSI) ([Cao et al., 2012]; [Mourtada et al., 2019]). Briefly, the bacterial cells were incubated in Mueller-Hinton broth (MHB, Oxoid) at 37°C and 150 rpm, after overnight incubation, the bacteria were transferred to new broth until the exponential phase of growth (OD630 = 0.4). After that, the bacteria were diluted with fresh MHB to 160 μl and prepared in a sterile 96-well polypropylene plate to achieve a final concentration of 6.25 × 10^5 colony forming units (cfu) per ml. Two-fold dilutions of the peptides in 0.9% sodium chloride (40 μl) were added to each well to achieve the final peptide concentrations ranging from 1.25 to 80 μg ml^–1. […] All experiments were repeated at least three times.

| SMILES | MIC (S. aureus 4188) [µg/mL] | MIC (S. aureus ATCC 25923) [µg/mL] | MIC (S. aureus 1176) [µg/mL] | MIC (S. aureus 9124) [µg/mL] | MIC (A. baumannii 13012) [µg/mL] | MIC (A. baumannii 13079) [µg/mL] | MIC (A. baumannii 906) [µg/mL] | MIC (A. baumannii 9068) [µg/mL] | MIC [2] [µg/mL] | MIC (E. faecium 898) [µg/mL] | MIC (E. coli 2687) [µg/mL] | MIC (E. coli ATCC35218) [µg/mL] | MIC (E. coli 2678) [µg/mL] | MIC (S. epidermidis 6943) [µg/mL] | MIC (S. epidermidis 888) [µg/mL] | MIC (E. faecalis 901) [µg/mL] | MIC (S. epidermidis 9092) [µg/mL] | MIC (K. pneumoniae 9126) [µg/mL] | MIC (P. aeruginosa ATCC 27853) [µg/mL] | MIC (S. aureus ATCC29213) [µg/mL] | other results |
| --- | --- | --- | --- | --- | --- | --- | --- | --- | --- | --- | --- | --- | --- | --- | --- | --- | --- | --- | --- | --- | --- |
| CC[C@H](C)[C@H](NC(=O)[C@H](CCCNC(=N)N)NC(=O)[C@H](CCCCN)NC(=O)[C@@H](NC(=O)[C@@H](N)Cc1ccccc1)[C@@H](C)CC)C(=O)N[C@@H](C)C(=O)N[C@@H](CCCNC(=N)N)C(=O)N[C@@H](CC(C)C)C(=O)N[C@@H](CC(C)C)C(=O)N[C@@H](CCCNC(=N)N)C(=O)N[C@@H](CCCCN)C(=O)N[C@H](C(=O)N[C@@H](Cc1ccccc1)C(N)=O)[C@@H](C)CC [BmKn2-7] (H-FIKRIARLLRKIF-NH2) | 5 (≈ 2.99 µM) | 5 (≈ 2.99 µM) | 5 (≈ 2.99 µM) | 5 (≈ 2.99 µM) | 5 (≈ 2.99 µM) | 2.5 (≈ 1.49 µM) | 5 (≈ 2.99 µM) | 5 (≈ 2.99 µM) | 10 (≈ 5.98 µM) | 5 (≈ 2.99 µM) | 10 (≈ 5.98 µM) | 10 (≈ 5.98 µM) | 20 (≈ 12 µM) | 5 (≈ 2.99 µM) | 5 (≈ 2.99 µM) | 5 (≈ 2.99 µM) | 5 (≈ 2.99 µM) | 10 (≈ 5.98 µM) | 10 (≈ 5.98 µM) | 5 (≈ 2.99 µM) | percent hRBC hemolysis ([1]; peptide 25 μg ml^–1): 6.9%; percent hRBC hemolysis ([1]; peptide 100 μg ml^–1): 41.0%; MIC (P. aeruginosa 9042): 20 µg/mL (≈ 12 µM); MIC (P. aeruginosa 9014): 10 µg/mL (≈ 5.98 µM); MIC (E. faecalis ATCC 29212): 5 µg/mL (≈ 2.99 µM); MIC (E. coli ATCC25922): 10 µg/mL (≈ 5.98 µM); MIC (A. baumannii ATCC 19606): 5 µg/mL (≈ 2.99 µM) |
| CC[C@H](C)[C@H](NC(=O)[C@H](CCCNC(=N)N)NC(=O)[C@H](CCCNC(=N)N)NC(=O)[C@@H](NC(=O)[C@@H](N)Cc1ccccc1)[C@@H](C)CC)C(=O)N[C@@H](C)C(=O)N[C@@H](CCCNC(=N)N)C(=O)N[C@@H](CC(C)C)C(=O)N[C@@H](CC(C)C)C(=O)N[C@@H](CCCNC(=N)N)C(=O)N[C@@H](CCCNC(=N)N)C(=O)N[C@H](C(=O)N[C@@H](Cc1ccccc1)C(N)=O)[C@@H](C)CC [BmKn2-7R] (H-FIRRIARLLRRIF-NH2) | 5 (≈ 2.89 µM) | 5 (≈ 2.89 µM) | 5 (≈ 2.89 µM) | 5 (≈ 2.89 µM) | 2.5 (≈ 1.45 µM) | 2.5 (≈ 1.45 µM) | 2.5 (≈ 1.45 µM) | 5 (≈ 2.89 µM) | 5 (≈ 2.89 µM) | 2.5 (≈ 1.45 µM) | 10 (≈ 5.78 µM) | 10 (≈ 5.78 µM) | 10 (≈ 5.78 µM) | 5 (≈ 2.89 µM) | 2.5 (≈ 1.45 µM) | 5 (≈ 2.89 µM) | 5 (≈ 2.89 µM) | 5 (≈ 2.89 µM) | 5 (≈ 2.89 µM) | 5 (≈ 2.89 µM) | percent hRBC hemolysis ([1]; peptide 100 μg ml^–1): 73.1%; MIC against ESBL E. coli, CRE/MDR P. aeruginosa, CRE/MDR A. baumannii [3]: 2.5–10 μg ml^–1; MIC (P. aeruginosa 9042): 5 µg/mL (≈ 2.89 µM); MIC (P. aeruginosa 9014): 2.5 µg/mL (≈ 1.45 µM); MIC (E. faecalis ATCC 29212): 10 µg/mL (≈ 5.78 µM); MIC (E. coli ATCC25922): 10 µg/mL (≈ 5.78 µM); MIC (A. baumannii ATCC 19606): 2.5 µg/mL (≈ 1.45 µM) |
| CC[C@H](C)[C@H](NC(=O)[C@H](C)NC(=O)CNC(=O)[C@@H](NC(=O)[C@@H](N)Cc1ccccc1)[C@@H](C)CC)C(=O)N[C@@H](C)C(=O)N[C@@H](CCCNC(=N)N)C(=O)N[C@@H](CC(C)C)C(=O)N[C@@H](CC(C)C)C(=O)N[C@@H](CO)C(=O)N[C@@H](CCCCN)C(=O)N[C@H](C(=O)N[C@@H](Cc1ccccc1)C(N)=O)[C@@H](C)CC [BmKn2] (H-FIGAIARLLSKIF-NH2) | 5 (≈ 3.45 µM) | 5 (≈ 3.45 µM) | 2.5 (≈ 1.73 µM) | 2.5 (≈ 1.73 µM) | 10 (≈ 6.91 µM) | 10 (≈ 6.91 µM) | 10 (≈ 6.91 µM) | 10 (≈ 6.91 µM) | >80 | 10 (≈ 6.91 µM) | >80 | >80 | >80 | 5 (≈ 3.45 µM) | 5 (≈ 3.45 µM) | 10 (≈ 6.91 µM) | 5 (≈ 3.45 µM) | >80 | >80 | 10 (≈ 6.91 µM) | percent hRBC hemolysis ([1]; peptide 25 μg ml^–1): 91.8%; MIC (P. aeruginosa 9042): >80 µg/mL; MIC (P. aeruginosa 9014): >80 µg/mL; MIC (E. faecalis ATCC 29212): 10 µg/mL (≈ 6.91 µM); MIC (E. coli ATCC25922): > 80 µg/mL; MIC (A. baumannii ATCC 19606): 10 µg/mL (≈ 6.91 µM); MIC against A. baumannii (A. baumannii): 5–10 μg ml^–1 |
